Data from the NIST ThermoML archive (doi:10.1016/j.jct.2018.03.011).
Numbers after ± are expanded uncertainties.

Tests used:
[1] = for Normal melting temperature: Crystal; for viscosity / mass density: 101.33 kPa, Liquid; for viscosity: Falling or rolling sphere viscometry; for mass density: Vibrating tube method
[2] = Molar enthalpy of transition or fusion; conditions: Crystal; DSC

SMILES | Normal melting temperature ([1]; DTA) | Molar enthalpy of transition or fusion [2] | viscosity ([1]; 293.2 K) | mass density ([1]; 293.2 K) | viscosity ([1]; 308.2 K) | mass density ([1]; 308.2 K) | viscosity ([1]; 313.2 K) | mass density ([1]; 313.2 K) | viscosity ([1]; 318.2 K) | mass density ([1]; 318.2 K) | viscosity ([1]; 323.2 K) | mass density ([1]; 323.2 K) | viscosity ([1]; 328.2 K) | mass density ([1]; 328.2 K) | viscosity ([1]; 333.2 K) | mass density ([1]; 333.2 K) | viscosity ([1]; 338.2 K) | mass density ([1]; 338.2 K) | viscosity ([1]; 343.2 K) | mass density ([1]; 343.2 K) | other results
CCCC[N+]1(C)CCOCC1.[Br-] [4-butyl-4-methylmorpholinium bromide] | 211.1 ± 1.1 °C | 3.54 ± 0.263 kcal/mol | – | – | – | – | – | – | – | – | – | – | – | – | – | – | – | – | – | – | –
OCCOCCOCCO [triethylene glycol] | – | – | 48.32 ± 4.9 mPa·s | 1123.1 ± 1.1 kg/m3 | 23.74 ± 2.4 mPa·s | 1111.5 ± 1.1 kg/m3 | 19.26 ± 1.9 mPa·s | 1107.6 ± 1.1 kg/m3 | 16.41 ± 1.6 mPa·s | 1103.8 ± 1.1 kg/m3 | 13.51 ± 1.4 mPa·s | 1099.9 ± 1.1 kg/m3 | 11.35 ± 1.1 mPa·s | 1096 ± 1.1 kg/m3 | 9.602 ± 0.97 mPa·s | 1092.1 ± 1.1 kg/m3 | 8.278 ± 0.83 mPa·s | 1088.2 ± 1.1 kg/m3 | 7.351 ± 0.74 mPa·s | 1084.3 ± 1 kg/m3 | viscosity ([1]; 298.2 K): 37.16 ± 3.8 mPa·s; mass density ([1]; 298.2 K): 1119.2 ± 1.1 kg/m3; viscosity ([1]; 303.2 K): 29.27 ± 2.9 mPa·s; mass density ([1]; 303.2 K): 1115.4 ± 1.1 kg/m3
CCCCn1cc[n+](C)c1.[Br-] [1-butyl-3-methylimidazolium bromide] | – | – | – | – | – | – | – | – | – | – | – | – | – | – | – | – | – | – | – | – | Normal melting temperature ([1]; visual observation): 79.0 ± 1.1 °C
CC[N+]1(C)CCOCC1.[Br-] [N-ethyl-N-methylmorpholinium bromide] | 172.5 ± 5.1 °C | 3.99 ± 0.263 kcal/mol | – | – | – | – | – | – | – | – | – | – | – | – | – | – | – | – | – | – | –
OCCOCCO [diethylene glycol] | – | – | 38.11 ± 3.8 mPa·s | 1116.4 ± 1.1 kg/m3 | 19.02 ± 1.9 mPa·s | 1105.7 ± 1.1 kg/m3 | 15.6 ± 1.6 mPa·s | 1102.1 ± 1.1 kg/m3 | 12.69 ± 1.3 mPa·s | 1098.5 ± 1.1 kg/m3 | 10.62 ± 1.1 mPa·s | 1094.8 ± 1 kg/m3 | 8.853 ± 0.89 mPa·s | 1091.2 ± 1 kg/m3 | 7.362 ± 0.74 mPa·s | 1087.5 ± 1 kg/m3 | 6.208 ± 0.62 mPa·s | 1083.8 ± 1 kg/m3 | 5.324 ± 0.54 mPa·s | 1080.1 ± 1 kg/m3 | viscosity ([1]; 298.2 K): 29.82 ± 3 mPa·s; mass density ([1]; 298.2 K): 1112.8 ± 1.1 kg/m3; viscosity ([1]; 303.2 K): 23.64 ± 2.4 mPa·s; mass density ([1]; 303.2 K): 1109.2 ± 1.1 kg/m3
O=S1(=O)CCCC1 [sulfolane] | – | – | – | – | 9.194 ± 0.92 mPa·s | 1257.4 ± 1.1 kg/m3 | 8.116 ± 0.82 mPa·s | 1253 ± 1.1 kg/m3 | 7.201 ± 0.72 mPa·s | 1248.6 ± 1.1 kg/m3 | 6.439 ± 0.65 mPa·s | 1244.2 ± 1.1 kg/m3 | 5.772 ± 0.58 mPa·s | 1239.8 ± 1.1 kg/m3 | 5.199 ± 0.52 mPa·s | 1235.5 ± 1.1 kg/m3 | 4.714 ± 0.47 mPa·s | 1231.1 ± 1.1 kg/m3 | 4.268 ± 0.43 mPa·s | 1226.7 ± 1.1 kg/m3 | –
